Each block holds one compound with its values, some of them ahead of it.
How the values were obtained:
Format in all cases: biochemical
FLAG-tagged PRMT1 = molecular target: T1, FLAG-tagged PRMT1 (Rattus norvegicus, UniProt Q63009); experiment: Fluorescence-based in vitro PRMT assay (F-PRMT assay), PRMT1; details: for Experimental result (PRMT1): vs solvent control = 100%; for Efficacy ±Δ% (PRMT1): mean % difference of activity vs solvent control (100%), - inhibition, + activation
T1 construct: Full-length FLAG-tagged PRMT protein; made in house; host or cells: Sf9 insect cells (baculovirus)
T1 sequence (Q63009 whole entry): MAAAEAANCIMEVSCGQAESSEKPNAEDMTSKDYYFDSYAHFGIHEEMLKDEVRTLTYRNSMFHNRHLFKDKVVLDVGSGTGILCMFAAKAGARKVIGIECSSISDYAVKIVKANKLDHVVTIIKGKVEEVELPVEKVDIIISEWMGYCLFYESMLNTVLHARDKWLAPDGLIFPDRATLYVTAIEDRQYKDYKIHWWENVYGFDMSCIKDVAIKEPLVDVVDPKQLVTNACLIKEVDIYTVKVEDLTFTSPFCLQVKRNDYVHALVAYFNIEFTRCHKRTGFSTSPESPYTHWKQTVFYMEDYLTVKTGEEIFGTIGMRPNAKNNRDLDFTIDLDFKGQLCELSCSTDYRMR

FLAG-tagged PRMT3 = molecular target: T2, FLAG-tagged PRMT3 (Homo sapiens, UniProt O60678); experiment: Fluorescence-based in vitro PRMT assay (F-PRMT assay), PRMT3; details: Table 1; 100 μM compound, 2 μM PRMT, vs solvent control = 100%, n = 3; racemates used
T2 construct: The complete ORFs of human PRMT3 and PRMT6 were inserted; made in house; host or cells: Sf9 insect cells (baculovirus)
T2 sequence (O60678 whole entry): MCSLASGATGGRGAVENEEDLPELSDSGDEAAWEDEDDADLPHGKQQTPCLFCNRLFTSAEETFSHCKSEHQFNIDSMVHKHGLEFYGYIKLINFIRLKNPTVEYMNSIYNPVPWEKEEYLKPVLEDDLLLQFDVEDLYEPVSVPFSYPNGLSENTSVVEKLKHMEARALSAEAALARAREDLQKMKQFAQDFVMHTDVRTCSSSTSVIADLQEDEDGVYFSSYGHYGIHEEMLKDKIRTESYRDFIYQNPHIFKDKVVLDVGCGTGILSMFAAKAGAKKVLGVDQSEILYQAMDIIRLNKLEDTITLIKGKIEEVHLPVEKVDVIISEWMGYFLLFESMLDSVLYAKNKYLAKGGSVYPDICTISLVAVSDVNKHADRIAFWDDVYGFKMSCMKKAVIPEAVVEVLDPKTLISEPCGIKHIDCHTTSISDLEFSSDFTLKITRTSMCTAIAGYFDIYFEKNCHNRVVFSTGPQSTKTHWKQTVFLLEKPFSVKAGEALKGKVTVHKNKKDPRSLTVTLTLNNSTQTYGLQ
Text: (§1) To evaluate the effects of the selected candidate molecules on the catalytic activity of type I enzymes, we employed a quantitative fluorescence-based in vitro PRMT activity (F-PRMT) assay using recombinant FLAG-tagged PRMT proteins expressed and affinity-purified from baculovirus-infected Sf9 cells (SI Figure S1, SI Figure S2A).
(§2) Human cell lines (PaTu8988T, PANC-1) were obtained from ATCC (American Type Culture Collection) and cultured in DMEM supplemented with 10% fetal calf serum (FCS, Gibco/BRL), 1% penicillin/streptomycin at 37 °C and 5% CO2. […] For PRMT1 inhibition, cells were treated with type I PRMT inhibitor MS023 hydrochloride (Biomol). For induction of genotoxic stress, cells were treated with gemcitabine (LC Laboratories). […] The following plasmids were used: pFASTBAC-FLAG-rat PRMT1, pFASTBAC-FLAG-mouse PRMT4, and pGEX-GAR. The complete ORFs of human PRMT3 and PRMT6 were inserted into the pFASTBAC HT-3xFLAG B vector via BamHI/HindIII and BamHI/XhoI sites, respectively.
(§3) For PRMT protein expression in insect cells, recombinant baculovirus (bacmid) was generated using the Bac-to-Bac baculovirus system (Invitrogen). Sf9 cells were transfected with bacmid DNA using X-tremeGENE HP DNA transfection reagent (Sigma-Aldrich) according to the manufacturer's instructions. After 3–5 days, supernatants were collected, filtered, and used to infect Sf9 cells to amplify the virus. After 2 rounds of virus amplification and estimation of the final P3 virus titer, the P3 virus (2–5 μL/10^6 cells) was applied for large-scale infection of 200 × 10^6 Sf9 cells in suspension culture at a density of 1 × 10^6 cells/mL. Cells were harvested 5–6 days post-infection by centrifugation at 500 g for 5 min at room temperature. Protein purification from baculovirus-infected Sf9 cells was performed as previously described. , Cells were lysed in BC buffer (20 mM HEPES pH 7.9, 250 mM NaCl, 10% (v/v) glycerin, 0.4 mM EDTA, 1 mM DTT) containing a protease inhibitor cocktail (Roche) by 3 freeze-thaw cycles. After centrifugation at 11,000 rpm (Sorval SS34 rotor) and 4 °C for 1 h, the supernatant (whole cell protein extract) was incubated with anti-FLAG M2 Affinity Gel (Cytiva) at 4 °C and under agitation for 4 h. Subsequently, beads were washed in BC buffer containing various NaCl concentrations (once in BC with 1 M NaCl, twice in BC with 500 mM NaCl, twice in BC with 250 mM NaCl and twice in BC with 100 mM NaCl). FLAG-tagged proteins were either maintained bead-bound as a 50% (v/v) slurry in BC buffer with 100 mM NaCl and stored at −80 °C or were eluted in the appropriate elution buffer (depending on the subsequent assay) containing 0.25 mg/mL 3xFLAG peptides (Sigma-Aldrich) at 4 °C for 30–45 min. To remove the FLAG-peptides from the eluate, dialysis was performed in elution buffer containing 10% (v/v) glycerol at 4 °C for 4–6 h using Slide-A-Lyzer Dialysis Devices (Thermo Fisher Scientific) according to the manufacturer’s recommendations.
(§4) In the first step, the fluorogenic substrate Nα-Benzoyl-L-arginine-7-amido-4-methylcoumarin (Bz-Arg-AMC, Sigma-Aldrich) undergoes methylation by PRMTs upon the addition of the cofactor SAM. In the second reaction step, trypsin cleaves the nonmethylated substrate, leading to the generation of the 7-amino-4-methylcoumarin product, which can be quantified by subsequent fluorescence measurement (excitation: 355 nm, emission: 460 nm). The first reaction was conducted with bead-bound PRMTs at a total volume of 100 μL. Each condition was performed as a technical triplicate to determine the mean and the standard deviation. […] For the negative controls, SAM was substituted with assay buffer. The incubation was continued at 37 °C and under agitation (1,000 rpm) for a duration of 2 h.

FLAG-tagged PRMT4 = molecular target: T3, FLAG-tagged PRMT4 (Mus musculus, UniProt Q9WVG6); experiment: Fluorescence-based in vitro PRMT assay (F-PRMT assay), PRMT4; details: for Experimental result (PRMT4): vs solvent control = 100%; for Efficacy ±∆% (PRMT4): mean % difference vs solvent control (100%)
T3 construct: Full-length FLAG-tagged PRMT protein; made in house; host or cells: Sf9 insect cells (baculovirus)
T3 sequence (Q9WVG6 1-608): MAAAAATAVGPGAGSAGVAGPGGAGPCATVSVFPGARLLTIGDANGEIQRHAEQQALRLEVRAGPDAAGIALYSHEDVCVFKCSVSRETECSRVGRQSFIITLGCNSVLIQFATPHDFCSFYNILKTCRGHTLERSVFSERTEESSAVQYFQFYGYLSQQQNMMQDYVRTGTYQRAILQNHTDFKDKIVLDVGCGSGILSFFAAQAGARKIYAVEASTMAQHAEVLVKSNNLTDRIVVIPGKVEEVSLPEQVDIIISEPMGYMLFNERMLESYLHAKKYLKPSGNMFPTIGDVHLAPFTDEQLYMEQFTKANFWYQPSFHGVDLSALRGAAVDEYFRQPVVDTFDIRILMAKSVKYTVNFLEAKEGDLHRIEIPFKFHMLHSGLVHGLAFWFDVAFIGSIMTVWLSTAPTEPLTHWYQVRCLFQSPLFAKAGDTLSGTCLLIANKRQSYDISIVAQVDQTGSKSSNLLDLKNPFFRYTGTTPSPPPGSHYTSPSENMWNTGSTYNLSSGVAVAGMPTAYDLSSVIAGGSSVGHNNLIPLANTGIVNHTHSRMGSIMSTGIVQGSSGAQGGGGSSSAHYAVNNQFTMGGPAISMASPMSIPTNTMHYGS
Text: as §1, §2, §3, §4

FLAG-tagged PRMT6 = molecular target: T4, FLAG-tagged PRMT6 (Homo sapiens, UniProt Q96LA8); experiment: Fluorescence-based in vitro PRMT assay (F-PRMT assay), PRMT6; details: Table 1; 100 μM compound, 2 μM PRMT, vs solvent control = 100%, n = 3; racemates used
T4 construct: The complete ORFs of human PRMT3 and PRMT6 were inserted; made in house; host or cells: Sf9 insect cells (baculovirus)
T4 sequence (Q96LA8 whole entry): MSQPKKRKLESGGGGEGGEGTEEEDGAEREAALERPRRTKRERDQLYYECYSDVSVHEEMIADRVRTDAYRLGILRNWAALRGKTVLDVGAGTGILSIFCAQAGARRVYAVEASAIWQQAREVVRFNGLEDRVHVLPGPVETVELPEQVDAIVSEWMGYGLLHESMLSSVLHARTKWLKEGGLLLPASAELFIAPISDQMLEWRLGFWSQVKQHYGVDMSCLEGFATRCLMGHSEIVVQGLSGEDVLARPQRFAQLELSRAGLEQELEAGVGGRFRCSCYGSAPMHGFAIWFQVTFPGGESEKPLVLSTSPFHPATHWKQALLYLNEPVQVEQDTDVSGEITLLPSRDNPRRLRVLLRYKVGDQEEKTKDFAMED
Text: as §1, §2, §3, §4

[1] = Table 1, 100 μM compound, 2 μM PRMT, n = 3, racemates used
[2] = Table 1, 100 μM compound, n = 3
[3] = Table S2, 100 µM compound, n=3, racemates used

Experimental result (PRMT4) (FLAG-tagged PRMT4; [1]): PRMT4 i
Structure (SMILES): CNC[C@@H](O)COc1cccc(OC)c1 (racemic) [Compound K001JS003]
Experimental result (PRMT1) (FLAG-tagged PRMT1; [1]): PRMT1 n.e. (Compounds, which did not significantly affect the catalytic activity (less than ±6% change or not significant p-value), are marked with [drawing 8] (no effect))
Experimental result (PRMT3) (FLAG-tagged PRMT3): PRMT3 n.e. (Compounds, which did not significantly affect the catalytic activity (less than ±6% change or not significant p-value), are marked with [drawing 8] (no effect))
Experimental result (PRMT6) (FLAG-tagged PRMT6): PRMT6 n.e. (Compounds, which did not significantly affect the catalytic activity (less than ±6% change or not significant p-value), are marked with [drawing 8] (no effect))

Experimental result (PRMT1) (FLAG-tagged PRMT1; [1]): PRMT1 i
Efficacy ±Δ% (PRMT1) (FLAG-tagged PRMT1; [2]): -30%
Experimental result (PRMT4) (FLAG-tagged PRMT4; [1]): PRMT4 i
Experimental result (PRMT6) (FLAG-tagged PRMT6): PRMT6 i
Structure (SMILES): CNC[C@H](O)COc1ccc([N+](=O)[O-])cc1Cl (racemic) [Compound K001JS007]
Experimental result (PRMT3) (FLAG-tagged PRMT3): PRMT3 n.e. (Compounds, which did not significantly affect the catalytic activity (less than ±6% change or not significant p-value), are marked with [drawing 8] (no effect))

Structure (SMILES): NCCc1cn2cccc(OCc3ccccc3)c2n1 [Compound K001FT005]
Experimental result (PRMT4) (FLAG-tagged PRMT4; [3]): n.e. (did not significantly affect the catalytic activity of the intended PRMT (less than ±6% change or not significant p-value), are marked with n.e. (no effect))

Structure (SMILES): Cn1ccnc1Cn1c(CCCN)nc2c1CCCC2 [Compound K001FT006]
Experimental result (PRMT4) (FLAG-tagged PRMT4; [3]): n.e. (did not significantly affect the catalytic activity of the intended PRMT (less than ±6% change or not significant p-value), are marked with n.e. (no effect))

Structure (SMILES): COc1cccc(CNC(=O)NCc2nc3ccccc3s2)c1 [Compound K001FT008]
Experimental result (PRMT4) (FLAG-tagged PRMT4; [3]): n.e. (did not significantly affect the catalytic activity of the intended PRMT (less than ±6% change or not significant p-value), are marked with n.e. (no effect))

Structure (SMILES): NCCCNCc1sc2ccccc2c1Cl [Compound K001FT010]
Experimental result (PRMT4) (FLAG-tagged PRMT4; [3]): n.e. (did not significantly affect the catalytic activity of the intended PRMT (less than ±6% change or not significant p-value), are marked with n.e. (no effect))

Structure (SMILES): CNCCCNCc1ccccc1Br [Compound K001FT011]
Experimental result (PRMT4) (FLAG-tagged PRMT4; [3]): n.e. (did not significantly affect the catalytic activity of the intended PRMT (less than ±6% change or not significant p-value), are marked with n.e. (no effect))

Structure (SMILES): COc1cccc(NC(=O)COC(=O)c2cc3ccccc3[nH]2)c1 [Compound K001JS005]
Experimental result (PRMT4) (FLAG-tagged PRMT4; [3]): n.e. (did not significantly affect the catalytic activity of the intended PRMT (less than ±6% change or not significant p-value), are marked with n.e. (no effect))

Experimental result (PRMT4) (FLAG-tagged PRMT4; [1]): PRMT4 i
Efficacy ±Δ% (PRMT4) (FLAG-tagged PRMT4; Table 1, 100 μM compound, mean % difference of activity vs solvent control (100%), - inhibition, + activation, n = 3): -10%
Experimental result (PRMT6) (FLAG-tagged PRMT6): PRMT6 i
Structure (SMILES): CNCCCNCCc1ccccc1 [Compound K001JS006]
Experimental result (PRMT1) (FLAG-tagged PRMT1; [1]): PRMT1 n.e. (Compounds, which did not significantly affect the catalytic activity (less than ±6% change or not significant p-value), are marked with [drawing 8] (no effect))
Experimental result (PRMT3) (FLAG-tagged PRMT3): PRMT3 n.e. (Compounds, which did not significantly affect the catalytic activity (less than ±6% change or not significant p-value), are marked with [drawing 8] (no effect))

Structure (SMILES): O=c1ccc([N+](=O)[O-])cn1Cc1nccn1Cc1ccccc1 [Compound K001JS009]
Experimental result (PRMT4) (FLAG-tagged PRMT4; [3]): n.e. (did not significantly affect the catalytic activity of the intended PRMT (less than ±6% change or not significant p-value), are marked with n.e. (no effect))

Experimental result (PRMT1) (FLAG-tagged PRMT1; [1]): PRMT1 i
Efficacy ±Δ% (PRMT1) (FLAG-tagged PRMT1; [2]): -20%
Experimental result (PRMT6) (FLAG-tagged PRMT6): PRMT6 i
Structure (SMILES): N=C(N)NCCSCc1cccc2ccccc12 [Compound K001JS010]
Experimental result (PRMT3) (FLAG-tagged PRMT3): PRMT3 n.e. (Compounds, which did not significantly affect the catalytic activity (less than ±6% change or not significant p-value), are marked with [drawing 8] (no effect))
Experimental result (PRMT4) (FLAG-tagged PRMT4; [1]): PRMT4 n.e. (Compounds, which did not significantly affect the catalytic activity (less than ±6% change or not significant p-value), are marked with [drawing 8] (no effect))

Structure (SMILES): CS(=O)(=O)c1ccc(C(=O)NCc2nc3cc(F)ccc3[nH]2)cc1 [Compound K001JS011]
Experimental result (PRMT4) (FLAG-tagged PRMT4; [3]): n.e. (did not significantly affect the catalytic activity of the intended PRMT (less than ±6% change or not significant p-value), are marked with n.e. (no effect))

Structure (SMILES): Cc1ccc([N+](=O)[O-])c(OCCC(=O)Nc2ccc(O)cc2C)c1 [Compound K001JS012]
Experimental result (PRMT4) (FLAG-tagged PRMT4; [3]): n.e. (did not significantly affect the catalytic activity of the intended PRMT (less than ±6% change or not significant p-value), are marked with n.e. (no effect))

Structure (SMILES): COC(=O)COc1ccc(NC(=O)C23CC(CN2)C3)cc1 [Compound K400JK003]
Experimental result (PRMT4) (FLAG-tagged PRMT4; [3]): n.e. (did not significantly affect the catalytic activity of the intended PRMT (less than ±6% change or not significant p-value), are marked with n.e. (no effect))

Efficacy ±∆% (PRMT4) (FLAG-tagged PRMT4; Table S2, 100 µM compound, n=3): +8%
Structure (SMILES): CCS(=O)(=O)Nc1ccc(NC(=O)C23CC(CN2)C3)cc1 [Compound K400JK004]

Efficacy ±∆% (PRMT4) (FLAG-tagged PRMT4; Table S2, 100 µM compound, n=3): -10%
Structure (SMILES): CC1(C(=O)Nc2ccc3nc(CN)[nH]c3c2)CCC1 [Compound K400JK011]

Structure (SMILES): N/C(Cn1ccn2nc(-c3cccs3)cc2c1=O)=N\O [Compound K400JK015]
Experimental result (PRMT4) (FLAG-tagged PRMT4; [3]): n.e. (did not significantly affect the catalytic activity of the intended PRMT (less than ±6% change or not significant p-value), are marked with n.e. (no effect))

Structure (SMILES): CCN(CC)Cc1ccc(NS(=O)(=O)c2cc(C)cs2)cc1 [Compound K400JK016]
Experimental result (PRMT4) (FLAG-tagged PRMT4; [3]): n.e. (did not significantly affect the catalytic activity of the intended PRMT (less than ±6% change or not significant p-value), are marked with n.e. (no effect))

effect on PRMT1 activity (in words) (FLAG-tagged PRMT1; 100 μM compound): no significant effect
Structure (SMILES): CO/C=C1/C(=O)NC(=O)c2ccccc21 [TR-02, (E/Z)-4-(Methoxymethylene)isoquinoline-1,3(2H,4H)-dione]
Experimental result (PRMT1) (FLAG-tagged PRMT1; Table S3, 100 µM compound, n≥3): n.e. (did not significantly affect the catalytic activity (less than ±6% change or not significant p-value), are marked with n.e. (no effect))
Experimental result (PRMT4) (FLAG-tagged PRMT4; Table S3, 100 µM compound, n≥3): n.e. (did not significantly affect the catalytic activity (less than ±6% change or not significant p-value), are marked with n.e. (no effect))
